Numbers after ± are expanded uncertainties.
Conditions: 101.33 kPa, Liquid; for viscosity: Falling or rolling sphere viscometry; for mass density: Vibrating tube method

CCCCO [butan-1-ol]
viscosity (293.15 K): 2.941 ± 0.064 mPa·s | mass density (293.15 K): 809.77 ± 0.14 kg/m3 | viscosity (298.15 K): 2.573 ± 0.063 mPa·s | mass density (298.15 K): 805.98 ± 0.14 kg/m3 | viscosity (303.15 K): 2.264 ± 0.062 mPa·s | mass density (303.15 K): 802.08 ± 0.15 kg/m3 | viscosity (308.15 K): 2.002 ± 0.062 mPa·s | mass density (308.15 K): 798.19 ± 0.15 kg/m3 | viscosity (313.15 K): 1.788 ± 0.061 mPa·s | mass density (313.15 K): 794.36 ± 0.15 kg/m3

O [water]
viscosity (293.15 K): 1.002 ± 0.06 mPa·s | viscosity (298.15 K): 0.891 ± 0.06 mPa·s | viscosity (303.15 K): 0.798 ± 0.06 mPa·s | viscosity (308.15 K): 0.718 ± 0.06 mPa·s | viscosity (313.15 K): 0.652 ± 0.06 mPa·s

CCO [ethanol]
mass density (293.15 K): 789.48 ± 0.15 kg/m3 | mass density (298.15 K): 785.41 ± 0.15 kg/m3 | mass density (303.15 K): 780.65 ± 0.15 kg/m3 | mass density (308.15 K): 776.31 ± 0.15 kg/m3 | mass density (313.15 K): 772.08 ± 0.15 kg/m3

CC(=O)[O-].Cn1cc[nH+]c1 [1-methylimidazolium acetate]
viscosity (293.15 K): 8.196 ± 0.094 mPa·s | mass density (293.15 K): 1079.75 ± 0.29 kg/m3 | viscosity (298.15 K): 6.926 ± 0.085 mPa·s | mass density (298.15 K): 1075.33 ± 0.29 kg/m3 | viscosity (303.15 K): 5.913 ± 0.079 mPa·s | mass density (303.15 K): 1070.89 ± 0.29 kg/m3 | viscosity (308.15 K): 5.069 ± 0.075 mPa·s | mass density (308.15 K): 1066.45 ± 0.28 kg/m3 | viscosity (313.15 K): 4.395 ± 0.071 mPa·s | mass density (313.15 K): 1062 ± 0.28 kg/m3

CCCO [propan-1-ol]
viscosity (293.15 K): 2.206 ± 0.062 mPa·s | mass density (293.15 K): 803.58 ± 0.15 kg/m3 | viscosity (298.15 K): 1.976 ± 0.062 mPa·s | mass density (298.15 K): 799.61 ± 0.15 kg/m3 | viscosity (303.15 K): 1.737 ± 0.061 mPa·s | mass density (303.15 K): 795.6 ± 0.15 kg/m3 | viscosity (308.15 K): 1.548 ± 0.061 mPa·s | mass density (308.15 K): 791.51 ± 0.15 kg/m3 | viscosity (313.15 K): 1.383 ± 0.061 mPa·s | mass density (313.15 K): 787.39 ± 0.15 kg/m3

CO [methanol]
viscosity (293.15 K): 0.588 ± 0.06 mPa·s | mass density (293.15 K): 791.22 ± 0.15 kg/m3 | viscosity (298.15 K): 0.551 ± 0.06 mPa·s | mass density (298.15 K): 786.52 ± 0.15 kg/m3 | viscosity (303.15 K): 0.517 ± 0.06 mPa·s | mass density (303.15 K): 781.81 ± 0.15 kg/m3 | viscosity (308.15 K): 0.486 ± 0.06 mPa·s | mass density (308.15 K): 777.06 ± 0.15 kg/m3 | viscosity (313.15 K): 0.46 ± 0.06 mPa·s | mass density (313.15 K): 772.27 ± 0.15 kg/m3
